Experiments:
Xenopus tadpoles = assay: Xenopus tadpole anesthetic activity; type: in vivo, Xenopus laevis
mice [1] = assay: Loss-of-righting reflex anesthetic potency assay in mice; type: in vivo, mice (C57BL/6J)
[2] = pharmacokinetic profiling; type: in vivo; conditions: data not shown
mice [3] = conditions: previously reported; cited from earlier work
apoferritin = apoferritin (Equus caballus, UniProt P02791); assay: biochemical
apoferritin, sequence (P02791 2-175 limits assumed): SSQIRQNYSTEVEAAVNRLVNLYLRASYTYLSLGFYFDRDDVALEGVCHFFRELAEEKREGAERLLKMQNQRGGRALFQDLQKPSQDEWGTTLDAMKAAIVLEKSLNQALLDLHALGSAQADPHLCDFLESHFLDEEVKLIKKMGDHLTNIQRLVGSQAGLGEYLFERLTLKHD

| Compound | anesthetic activity / potency in tadpoles (immobility), in words (Xenopus tadpoles; tadpole immobility after 60 minutes exposure, SAR statements to figs 4-6) | mean duration of LoRR (mice [1]; 100 mg/kg iv) | onset of LoRR (mice [1]; intravenous, doses roughly twice that of propofol (moles per kilogram)) | LogED50 for LoRR (mice [1]; iv injection, unit printed only with the propofol value of the same legend) | pharmacokinetic profile (uptake, distribution, elimination) [2] | toxicity in tadpoles at 100 μM (Xenopus tadpoles; 100 μM) | logED50 in mice (mice [3]) | IC50 (apoferritin) | duration of LoRR (mice [1]; 20 mg/kg (0.11 mmol/kg)) |
| --- | --- | --- | --- | --- | --- | --- | --- | --- | --- |
| Cc1ccc(-c2ccc(=O)n(CC(=O)NCCc3ccccc3)n2)cc1 [compound 5] | optimal anesthetic activity | 245 ± 65 s | < 20 s | −0.761 mmol/kg | did not show any remarkable patterns of uptake, distribution, or elimination |  |  |  |  |
| CC(C)c1cccc(C(C)C)c1O [propofol, reference compound] |  |  |  |  |  | produced death at 100 μM | −1.03 mmol/kg | 23 µM | 445 ± 27 |
